Results published in US5994349A, “3-carboalkoxy-2, 3-dihydro-1H-phenothiazin-4[10H]-one derivatives” (priority 1997, dated 1999).
Where two headings read alike, the source gives them in different places.

Experiments:
[1] = test system: neurotoxicity (rotorod); experiment: rotorod toxicity, oral rat (Phase VIA/VIB); type: in vivo, male Sprague-Dawley rats; settings: rat oral, 30 mg/kg
Description: (§1) Initial evaluations for anticonvulsant activity include phases I, VIA and VIB test procedures. These tests are performed intraperitoneally in male Carworth Farms No. 1 (CF1) mice, weighing 18-25 g (Phase I) or orally in male Sprague-Dawley rats, weighing 100-150 g (Phases VIA and VIB). The evaluation is based on three tests: maximal electroshock (MES), subcutaneous (scMet), and the rotorod test for neurological toxicity (Tox). (a) Anticonvulsant Screening Project, Antiepileptic Drug Development Program, National Institutes of Health, DHEW Publ (NIH)(U.S.) 1978, NIH 78-1093. (b) Porter, R. J.; Cereghino, J. J.; Gladding, G. D.; Hessie, B. J.; Kupferberg, H. J.; Scoville, B.; White, B. G. Antiepileptic drug development program. Cleveland Clin. Q. 1984, 51, 293-305. (c) Krall, R. L.; Penry, J. K.; White, B. G.; Kupferberg, H. J.; Swinyard, E. A. Antiepileptic drug development: II. Anticonvulsant drug screening. Epilepsia 1978, 19, 400-428. In the MES test, maximal electroshock seizures are elicited with a 60- cycle alternating current of 50 mA intensity (5-7 times that necessary to elicit minimal electroshock seizures) delivered via corneal electrodes for 0.2 seconds. A drop of 0.9% saline is placed on the eye prior to application of the electrodes in order to […]. Abolition of the hind limb tonic extension component of the seizure is defined as protection and results are expressed as the number of animals protected/the number of animals tested.
The rotorod test is used to evaluate neurotoxicity. The animal is placed on a 1 inch diameter knurled plastic rod rotating at 6 rpm. Normal mice can remain on a rod rotating at this speed indefinitely.
(§2) To differentiate the results between different rodent species, 4b (X=H), as well as 4a (R=H), 4e (R=Cl), 4f (R=Cl) and 4i (R=CH3) are subsequently evaluated for oral (po) activity in the rat (Phase VIA or VIB).

[2] = test system: neurotoxicity (rotorod); experiment: rotorod test for neurological toxicity (Tox), Phase I, mice ip; type: in vivo, male Carworth Farms No. 1 (CF1) mice
Description: as §1
The rotorod test is used to evaluate neurotoxicity. The animal is placed on a 1 inch diameter knurled plastic rod rotating at 6 rpm. Normal mice can remain on a rod rotating at this speed indefinitely. […]

[3] = test system: maximal electroshock seizures; experiment: maximal electroshock (MES) test, oral rat (Phase VIA/VIB); type: in vivo, male Sprague-Dawley rats; settings: 30 mg/kg
Description: as §1, §2

[4] = test system: pentylenetetrazol seizures; experiment: subcutaneous pentylenetetrazol (scMet) test, Phase I, mice ip; type: in vivo, male Carworth Farms No. 1 (CF1) mice; settings: for responders at 30 mg/kg / responders at 100 mg/kg / responders at 300 mg/kg / responders at 10 mg/kg: Mus musculus
Description: as §1
In the sc MET test, eighty-five mg/kg of pentylenetetrazol, which induces seizures in more than 95% of mice, is administered as a 0.5% solution subcutaneously in the posterior midline. The animal is observed for 30 minutes. Failure to observe even a threshold seizure (a single episode of clonic spasms of at least 5 seconds duration) is defined as protection and the results are expressed as the number of animals protected/ the number of animals tested. […]

[5] = test system: maximal electroshock seizures; experiment: maximal electroshock (MES) test, Phase I, mice ip; type: in vivo, male Carworth Farms No. 1 (CF1) mice; settings: Mus musculus
Description: as §1
In phase I, compounds are suspended in 0.5% aqueous methylcellulose and are administered intraperitoneally at three dosage levels (30, 100, and 300 mg/kg) with anticonvulsant activity and motor impairment noted 30 min and 4 h (and in some cases 2 h and 6 h) after administration.

[6] = 0.5 h, mice ip, 30 min, read-out: scMet 30 min
[7] = 0.5 h, mice ip, 30 min, read-out: scMet 30 min (converted)
[8] = mice ip, 4 h, read-out: scMet 4 h
[9] = mice ip, 4 h, read-out: scMet 4 h (converted)
[10] = 4 h, read-out: MES 4 h (converted)
[11] = 0.5 h, 30 min, read-out: MES 30 min (converted)

SMILES	Tox ([1]; 0.25 h)	Tox ([1]; 0.50 h)	Tox ([1]; 1.00 h)	Tox ([1]; 2.00 h)	Tox ([1]; 4.00 h)	Tox 30 min ([2]; 30 mg/kg)	Tox 4 h ([2]; 30 mg/kg)	Tox 30 min ([2]; 100 mg/kg)	Tox 4 h ([2]; 100 mg/kg)	responders at 30 mg/kg ([3]; 0.25 h) [%]	responders at 30 mg/kg ([3]; 1.00 h) [%]	responders at 30 mg/kg ([3]; 0.5 h, 0.50 h) [%]	responders at 30 mg/kg [4, 6] [%]	responders at 100 mg/kg [4, 6] [%]	responders at 30 mg/kg [4, 8] [%]	responders at 100 mg/kg [4, 8] [%]	responders at 30 mg/kg ([5]; 4 h, read-out: MES 4 h) [%]	responders at 100 mg/kg [5, 10] [%]	responders at 30 mg/kg [5, 11] [%]	responders at 100 mg/kg [5, 11] [%]	other results
COC(=O)[C@@H]1C(=O)C2=C(C[C@H]1C)Nc1ccccc1S2 (relative stereo) [Compound 4a, 3-Carbomethoxy-2-methyl-2,3-dihydro-1H-phenothiazin-4[10H] -one]	0/4	0/4	0/4	0/4	0/4	0/4	0/2	0/8	0/4	0	50	25	0	0	0	0	0	33.3	0	100	Tox 30 min ([2]; 300 mg/kg): 1/4; Tox 4 h ([2]; 300 mg/kg): 0/2; responders at 30 mg/kg ([3]; 2.00 h): 25%; responders at 30 mg/kg ([3]; 4.00 h): 50%; responders at 300 mg/kg [4, 7]: 0%; responders at 300 mg/kg [4, 9]: 0%; responders at 300 mg/kg [5, 10]: 100%; responders at 300 mg/kg [5, 11]: 100%
COC(=O)[C@@H]1C(=O)C2=C(C[C@H]1C)Nc1ccc(Cl)cc1S2 (relative stereo) [Compound 4e, 7-Chloro-3-carbomethoxy-2-methyl-2,3-dihydro-1H-phenothiazin-4[10H] -one]	0/4	0/4	0/4	0/4	0/4	0/4	0/2	0/8	0/4	0	75	0	0	0	0	0	0	66.7	0	0	Tox 30 min ([2]; 300 mg/kg): 0/4; Tox 4 h ([2]; 300 mg/kg): 0/2; responders at 30 mg/kg ([3]; 2.00 h): 75%; responders at 30 mg/kg ([3]; 4.00 h): 50%; responders at 300 mg/kg [4, 7]: 0%; responders at 300 mg/kg [4, 9]: 0%; responders at 300 mg/kg [5, 10]: 100%; responders at 300 mg/kg [5, 11]: 0%
CCOC(=O)[C@@H]1C(=O)C2=C(C[C@H]1C)Nc1ccc(Cl)cc1S2 (relative stereo) [Compound 4f, 7-Chloro-3-carbethoxy-2-methyl-2,3-dihydro-1H-phenothiazin-4[10H] -one]	0/4	0/4	0/4	0/4	0/4	0/4	0/2	0/8	0/4	0	75	25	0	0	0	0	0	33.3	0	66.7	Tox 30 min ([2]; 300 mg/kg): 0/4; Tox 4 h ([2]; 300 mg/kg): 0/2; responders at 30 mg/kg ([3]; 2.00 h): 75%; responders at 30 mg/kg ([3]; 4.00 h): 75%; responders at 300 mg/kg [4, 7]: 0%; responders at 300 mg/kg [4, 9]: 40%; responders at 300 mg/kg [5, 10]: 100%; responders at 300 mg/kg [5, 11]: 100%
CCOC(=O)[C@@H]1C(=O)C2=C(C[C@H]1C)Nc1ccc(C)cc1S2 (relative stereo) [Compound 4i, 3-Carbethoxy-2,7-dimethyl-2,3-dihydro-1H-phenothiazin-4[10H]-one]	0/4	0/4	0/4	0/4	0/4	0/4	0/2	0/8	0/4	0	75	50	0	0	0	0	0	0	50	33.3	Tox 30 min ([2]; 300 mg/kg): 0/4; Tox 4 h ([2]; 300 mg/kg): 0/2; responders at 30 mg/kg ([3]; 2.00 h): 25%; responders at 30 mg/kg ([3]; 4.00 h): 0%; responders at 300 mg/kg [4, 7]: 0%; responders at 300 mg/kg [4, 9]: 0%; responders at 300 mg/kg [5, 10]: 100%; responders at 300 mg/kg [5, 11]: 100%
COC(=O)[C@@H]1C(=O)C2=C(C[C@H]1C)Nc1ccc(Br)cc1S2 (relative stereo) [Compound 4j, 7-Bromo-3-carbomethoxy-2-methyl-2,3-dihydro-1H-phenothiazin-4[10H]-one]	0/4	0/4	0/2	–	–	0/8	0/4	0/4	0/2	50	50	75	0	0	0	0	0	0	33.3	100	Tox 30 min ([2]; 10 mg/kg): 0/4; Tox 4 h ([2]; 10 mg/kg): 0/2; responders at 10 mg/kg ([4]; 0.5 h, mice ip, 10 mg/kg, 30 min, read-out: scMet 30 min): 0%; responders at 10 mg/kg ([4]; mice ip, 10 mg/kg, 4 h, read-out: scMet 4 h): 0%; observation in scMet test (footnote g) ([4]; mice ip, 10 and 30 mg/kg, 30 min): Continuous seizure activity; observation in scMet test (footnote h) ([4]; mouse, in vivo, ip, 10 mg/kg): Death following continuous seizure; responders at 10 mg/kg ([5]; 4 h, read-out: MES 4 h): 0%; responders at 10 mg/kg ([5]; 0.5 h, 30 min, read-out: MES 30 min): 0%
